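Five compound concentrations were applied to cells in 96-well plates for 48 hours; endpoints were derived by simple linear interpolation of the resulting dose-response curve. The concentration for 50% growth inhibition is given as GI50. TGI is the concentration that stops growth completely.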
What was measured:
Test in all cases: DTP human tumour cell line panel, 48 h
CCRF-CEM leukemia = tested on: CCRF-CEM leukemia
NCI-H226 lung = tested on: NCI-H226 lung
LOX IMVI melanoma = tested on: LOX IMVI melanoma
BT-549 breast = tested on: BT-549 breast
OVCAR-5 ovarian = tested on: OVCAR-5 ovarian
ACHN renal = tested on: ACHN renal
SF-539 CNS = tested on: SF-539 CNS
OVCAR-8 ovarian = tested on: OVCAR-8 ovarian
SW-620 colon = tested on: SW-620 colon
NCI/ADR-RES ovarian = tested on: NCI/ADR-RES ovarian
MDA-MB-435 = tested on: MDA-MB-435
SNB-19 CNS = tested on: SNB-19 CNS
A549 NSCLC = tested on: A549 NSCLC
HCT-15 colon = tested on: HCT-15 colon
TK-10 renal = tested on: TK-10 renal
U251 CNS = tested on: U251 CNS
SK-OV-3 ovarian = tested on: SK-OV-3 ovarian
OVCAR-4 ovarian = tested on: OVCAR-4 ovarian
NCI-H522 lung = tested on: NCI-H522 lung
SK-MEL-2 melanoma = tested on: SK-MEL-2 melanoma
EKVX NSCLC = tested on: EKVX NSCLC
NCI-H23 lung = tested on: NCI-H23 lung
RXF 393 renal = tested on: RXF 393 renal
PC-3 prostate = tested on: PC-3 prostate
KM12 colon = tested on: KM12 colon
HT29 colon = tested on: HT29 colon
786-0 renal = tested on: 786-0 renal
DU-145 prostate = tested on: DU-145 prostate
SF-268 CNS = tested on: SF-268 CNS

CC1(C)N=C(N)N=C(N)N1c1cccc(CCCCc2ccc(S(=O)(=O)F)cc2Cl)c1
GI50 (CCRF-CEM leukemia): 3.29 µM
TGI (CCRF-CEM leukemia): 36.5 µM
GI50 (NCI-H226 lung): 9.37 µM
TGI (NCI-H226 lung): 50.6 µM
GI50 (LOX IMVI melanoma): 1.34 µM
TGI (LOX IMVI melanoma): > 41.7 µM
GI50 (BT-549 breast): 4.31 µM
TGI (BT-549 breast): > 46.3 µM
GI50 (OVCAR-5 ovarian): 6.29 µM
TGI (OVCAR-5 ovarian): > 100 µM
GI50 (ACHN renal): 8.66 µM
TGI (ACHN renal): > 100 µM
GI50 (SF-539 CNS): 2.06 µM
TGI (SF-539 CNS): 20.1 µM
GI50 (OVCAR-8 ovarian): 6.17 µM
TGI (OVCAR-8 ovarian): > 61.4 µM
GI50 (SW-620 colon): 0.701 µM
TGI (SW-620 colon): > 39.8 µM
GI50 (NCI/ADR-RES ovarian): 76 µM
TGI (NCI/ADR-RES ovarian): > 100 µM
GI50 (MDA-MB-435): 0.611 µM
TGI (MDA-MB-435): 18.5 µM
GI50 (SNB-19 CNS): 1.64 µM
TGI (SNB-19 CNS): 20.6 µM
GI50 (A549 NSCLC): 1.42 µM
TGI (A549 NSCLC): > 100 µM
GI50 (HCT-15 colon): 4.61 µM
TGI (HCT-15 colon): > 100 µM
GI50 (TK-10 renal): 8.66 µM
TGI (TK-10 renal): > 100 µM
GI50 (U251 CNS): 0.722 µM
TGI (U251 CNS): 20.4 µM
GI50 (SK-OV-3 ovarian): 24.6 µM
TGI (SK-OV-3 ovarian): > 100 µM
GI50 (OVCAR-4 ovarian): 13.9 µM
TGI (OVCAR-4 ovarian): > 100 µM
GI50 (NCI-H522 lung): 3.6 µM
TGI (NCI-H522 lung): 20 µM
GI50 (SK-MEL-2 melanoma): 6.42 µM
TGI (SK-MEL-2 melanoma): > 58.5 µM
GI50 (EKVX NSCLC): 2.02 µM
TGI (EKVX NSCLC): > 67.5 µM
GI50 (NCI-H23 lung): 4.27 µM
TGI (NCI-H23 lung): 27.3 µM
GI50 (RXF 393 renal): 9.46 µM
TGI (RXF 393 renal): > 87.3 µM
GI50 (PC-3 prostate): 0.581 µM
TGI (PC-3 prostate): > 100 µM
GI50 (KM12 colon): 1.72 µM
TGI (KM12 colon): 15.7 µM
GI50 (HT29 colon): 0.788 µM
TGI (HT29 colon): > 100 µM
GI50 (786-0 renal): 3.28 µM
TGI (786-0 renal): 24.5 µM
GI50 (DU-145 prostate): 4.06 µM
TGI (DU-145 prostate): > 59.8 µM
GI50 (SF-268 CNS): 1.96 µM
TGI (SF-268 CNS): 17.4 µM

Source: PubChem BioAssay (NCI)
